Laboratory results from patent US7138423B2, “Arylpyrrolidine derivatives as NK-1 /SSRI antagonists” (Bristol-Myers Squibb Company, priority 2004, dated 2006).
Counter-ions that a name gives are not always drawn.

Experiments:
[1] = target: T1, human serotonin transporters (Homo sapiens, UniProt P31645); test: Serotonin transporter binding assay, [3H]-citalopram, HEK-hSERT membranes; settings: for IC50: HEK-hSERT membranes, 1 nM [3H]-citalopram displacement, read-out: SERT IC50; for activity for SERT: summary statement referring to Table 1
T1 construct: expressed in transfected cells; host or cells: HEK-293 cells stably expressing hSERT (G418 selection), membranes
T1 sequence (P31645 whole entry): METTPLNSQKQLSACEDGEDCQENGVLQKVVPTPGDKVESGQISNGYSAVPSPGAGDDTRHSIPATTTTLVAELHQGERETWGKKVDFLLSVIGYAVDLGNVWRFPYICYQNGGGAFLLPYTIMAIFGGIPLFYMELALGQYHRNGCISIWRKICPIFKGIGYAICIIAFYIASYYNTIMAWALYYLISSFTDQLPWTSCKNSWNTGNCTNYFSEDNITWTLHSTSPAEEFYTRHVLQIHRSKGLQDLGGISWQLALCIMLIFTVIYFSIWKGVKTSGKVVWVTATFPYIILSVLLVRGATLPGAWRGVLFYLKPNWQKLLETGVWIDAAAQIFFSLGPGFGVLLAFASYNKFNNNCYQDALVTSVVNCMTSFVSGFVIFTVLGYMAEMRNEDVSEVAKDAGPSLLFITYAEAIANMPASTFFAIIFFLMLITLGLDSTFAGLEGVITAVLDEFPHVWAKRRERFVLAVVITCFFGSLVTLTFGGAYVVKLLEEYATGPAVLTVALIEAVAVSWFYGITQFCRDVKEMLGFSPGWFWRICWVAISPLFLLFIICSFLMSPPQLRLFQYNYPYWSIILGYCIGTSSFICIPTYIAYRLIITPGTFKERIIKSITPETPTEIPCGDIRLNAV
Description: Serotonin Transporter Binding Assay
HEK-293 cells that stably express human serotonin transporters (HEK-hSERT cells) were grown at 37° C. in 5% CO2 as a monolayer in medium consisting of EMEM supplemented with 10% fetal bovine serum and G418 sulfate (500 μg/ml). To prepare membranes for radioligand binding experiments, cells were rinsed twice with phosphate-buffered saline (138 mM NaCl, 4.1 mM KCl, 5.1 mM Na2PO4, 1.5 mM […], 11.1 mM glucose, pH 7.4). Cells were transferred from plates to polypropylene tubes (16×100 mm), centrifuged at 1,200×g for 5 min and were frozen at −80° C. until assay. Following centrifugation, pellets were resuspended by homogenization in buffer consisting of 50 mM Tris (pH 7.7 at 25° C.), 120 mM NaCl and 5 mM KCl and then centrifuged at 32,000×g for 10 min. Following centrifugation, supernatants were discarded and pellets were resuspended in buffer consisting of 50 mM Tris (pH 7.4 at 25° C.), 150 mM NaCl and 5 mM KCl. Membrane homogenates (200 μl/plate) were incubated with 1 nM [^3H]-citalopram (specific activity=85 Ci/mmol) and increasing concentrations of test compounds for 1 hr at 25° C. in a total volume of 250 μl. The assay buffer consisted of 50 mM Tris (pH 7.4 at 25° C.), 120 mM NaCl and 5 mM KCl (pH 7.4 with conc. HCl). Plates were incubated for 1 hr at 25° C., then filtered through 0.5% PEI treated Whatman GF/B filters using a Brandel cell harvester. Filters were washed three times with 3 ml of ice-cold Tris wash buffer. Non-specific binding was defined with 10 μM fluoxetine. Amount of radioligand bound in the presence and absence of competitor was analyzed by plotting (−)log drug concentration versus the amount of radioligand specifically bound. The midpoint of the displacement curve (IC50, nM), signifies the potency. Ki values were calculated using the method of Cheng and Prusoff [Cheng, Y.-C. and Prusoff, W. H., Biochemical Pharmacology, Vol. 22, pp. 3099–3108, Pergamon Press (1973)].

[2] = target: T2, neurokinin-1 (NK-1) receptor (Homo sapiens, UniProt P25103); test: NK-1 binding, [125I] Substance P competition, U373 cell membranes; settings: for IC50: U373 membranes, Bolton Hunter [125I] Substance P displacement; for activity for NK-1: summary statement referring to Table 1
T2 construct: a human glioblastoma-astrocytoma cell line that endogenously expresses the neurokinin-1 (NK-1) receptor; endogenous in cells; host or cells: U373 human glioblastoma-astrocytoma cells (membranes)
T2 sequence (P25103 whole entry): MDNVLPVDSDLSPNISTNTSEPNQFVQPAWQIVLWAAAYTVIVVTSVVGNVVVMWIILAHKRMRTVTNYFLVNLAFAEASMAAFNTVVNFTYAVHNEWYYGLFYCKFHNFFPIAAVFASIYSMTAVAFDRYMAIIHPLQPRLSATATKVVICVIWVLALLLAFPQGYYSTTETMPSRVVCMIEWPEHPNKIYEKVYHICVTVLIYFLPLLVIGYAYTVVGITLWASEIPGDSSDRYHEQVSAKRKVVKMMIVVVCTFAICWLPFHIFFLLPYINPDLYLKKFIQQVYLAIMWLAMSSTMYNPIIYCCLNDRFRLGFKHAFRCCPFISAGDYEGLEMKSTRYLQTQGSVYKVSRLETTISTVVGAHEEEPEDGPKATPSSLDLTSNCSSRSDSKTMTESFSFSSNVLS
Description: U373 cells, a human glioblastoma-astrocytoma cell line that endogenously expresses the neurokinin-1 (NK-1) receptor, were grown in a monolayer culture at 37° C. in 5% CO2 and fed with Minimum Essential Medium (MEM) supplemented with 10% fetal bovine serum. Membranes were prepared as follows: Cells were washed twice with ice-cold phosphate-buffered saline (pH 7.4) and then incubated for 5 to 10 minutes with ice-cold 10 mM Tris buffer (pH 7.4) containing 5 mM EDTA. Cells were removed from plates, homogenized, and centrifuged at 32,000×g for 20 minutes. The resulting supernatant was discarded, and the pellet resuspended by homogenization in 50 mM Tris buffer (pH 7.4) containing 1 mM EDTA and centrifuged at 32,000×g for 20 minutes. The resulting supernatant was discarded, and the pellet resuspended by homogenization in NK-1 binding assay buffer (50 mM Tris-HCL (pH 7.4), 3 mM MnCl2, 200 μg/ml BSA, 5 μg/ml chymostatin, 40 μg/ml bacitracin and 4 μg/ml leupeptin).
On the day of an experiment the membrane preparation was thawed, homogenized and diluted with NK-1 binding assay buffer to the appropriate concentration. Competition binding assays were performed in 96 well plate format by incubating membranes (5–10 ug/well) with Bolton Hunter labeled [^125I] Substance P, at a concentration of […], and concentrations of drugs ranging from 10000 to 0.01 nM. Samples were incubated for 30 min at 20° C. then filtered through GF/B glass fiber filters (pretreated with 1% polyethyleneimine and 0.3% Triton X-100) using a Brandel cell harvester. The filters were then washed with 10 ml ice cold 50 mM Tris-HCL (pH 7.4) containing 3 mM MgCl2. Non-specific was defined in the presence of 2 μM L-733,060 (a non-peptide NK-1 antagonist). Amount of radioligand bound in the presence and absence of competitor was analyzed by plotting (−)log drug concentration versus the amount of radioligand specifically bound. The midpoint of the displacement curve (IC50, nM), signifies the potency. Ki values were calculated using the method of Cheng and Prusoff [Cheng, Y.-C. and Prusoff, W. H., Biochemical Pharmacology, Vol. 22, pp. 3099–3108, Pergamon Press (1973)].

Structure (SMILES)	IC50 [1] [nM]	IC50 [2] [nM]	activity for SERT [1]	activity for NK-1 [2]
FC(F)(F)c1cccc(COC[C@@H]2CNC[C@H]2c2ccccc2)c1 (relative stereo) [Example 6, Trans-3-((3-trifluoromethylbenzyloxy)-methyl)-4-phenylpyrrolidine]	20 to 100	–	–	–
FC(F)(F)c1ccccc1COC[C@@H]1CNC[C@H]1c1ccccc1 (relative stereo) [Example 5, Trans-3-((2-trifluorobenzyloxy)-methyl)-4-phenylpyrrolidine]	100 to 300	–	–	–
Cc1cc(C)cc(COCC2CNCC2c2ccccc2)c1 (stereo not drawn) [Example 2, Trans-3-((3,5-dimethylbenzyloxy)-methyl)-4-phenylpyrrolidine]	20 to 100	100 to 300	have activity	have activity
FC(F)(F)c1cc(COC[C@@H]2CNC[C@H]2c2ccccc2)cc(C(F)(F)F)c1 (relative stereo) [Example 1, Trans-3-((3,5-bis(trifluoromethyl)benzyloxy)methyl)-4-phenylpyrrolidine hydrochloride]	–	20 to 100	–	–
Fc1cc(F)cc(COC[C@@H]2CNC[C@H]2c2ccccc2)c1 (relative stereo) [Example 4, Trans-3-((3,5-difluorobenzyloxy)methyl)-4-phenylpyrrolidine]	20 to 100	–	–	–

Second part, the molecule after the results:

IC50 [1] [nM]	IC50 [2] [nM]	activity for SERT [1]	activity for NK-1 [2]	Structure (SMILES)
20 to 100	–	–	–	Cc1cc(C)cc(OC[C@@H]2CNC[C@H]2c2ccccc2)c1 (relative stereo) [Example 11, Trans-3-((3,5-dimethylphenoxy)methyl)-4-phenylpyrrolidine hydrochloride]
–	100 to 300	–	–	FC(F)(F)c1cc(OC[C@@H]2CNC[C@H]2c2c[nH]c3ccccc23)cc(C(F)(F)F)c1 (relative stereo) [Example 12, Trans-3-(4-((3,5-bis(trifluoromethyl)phenoxy)methyl)pyrrolidin-3-yl)-1H-indole]
–	100 to 300	–	–	FC(F)(F)c1cc(COC[C@@H]2CNC[C@H]2c2c[nH]c3ccccc23)cc(C(F)(F)F)c1 (relative stereo) [Example 8, Trans-3-(4-((3,5-bis(trifluoromethyl)benzy-loxy)methyl)pyrrolidin-3-yl)-1H-indole]
20 to 100	100 to 300	have activity	have activity	FC(F)(F)c1cc(OCC2CNCC2c2ccccc2)cc(C(F)(F)F)c1 (stereo not drawn) [Example 10, Trans-3-((3,5-bis(trifluoromethyl)phenoxy)methyl)-4-phenylpyrrolidine trifluoroacetic acid salt]
